Results: patent US20200061047A1, “NEW USE OF RIFAMYCIN-QUINOLIZIDONE DUAL-ACTION MOLECULE” (TenNor Therapeutics Limited, priority 2017, published 2020)
Converted amounts (≈) assume the structure as drawn. Like-named read-outs stand apart in the source and are kept apart here.

Assays:
Experiment in all cases: MIC, agar dilution drug sensitivity test
Type in all cases: cell-based
[1] = test system: Bifidobacterium infantis subsp. Infantis ATCC 15702; settings: ATCC15702, Table 1
[2] = test system: Bacteroides bifidum ATCC 1569; settings: ATCC1569, Table 1
[3] = test system: Eggerthella lenta ATCC 43055; settings: ATCC43055, Table 1
[4] = test system: Fusobacterium necrophorum ATCC 25286; settings: ATCC25286, Table 1
[5] = test system: Escherichia coli ATCC 25922; settings: ATCC25922, Table 1
[6] = test system: Helicobacter pylori ATCC 700824; settings: ATCC700824, Table 1
[7] = test system: Lactobacillus salivarius JMI 941623; settings: Ligilactobacillus salivarius, JMI941623, Table 1
[8] = test system: Peptostreptococcus prevotii ATCC 9321; settings: Anaerococcus prevotii, ATCC9321, Table 1
[9] = test system: Klebsiella oxytoca JMI 933995; settings: JMI933995, Table 1
[10] = test system: Proteus mirabilis JMI 933599; settings: JMI933599, Table 1
[11] = test system: Proteus vulgaris MMX 6454; settings: MMX6454, Table 1
[12] = test system: Salmonella spp ATCC 35987; settings: ATCC35987, Table 1
Description: In this embodiment, compound I-rifamycin-quinolizidone dual-action molecule is used in a drug sensitivity test on pathogenic bacteria associated with hepatic encephalopathy, the pathogenic bacteria including the above ammonia-producing bacteria. Except that Haemophilus is tested using the microscale broth dilution method, all the other bacteria are tested using the agar dilution method consistent with that in the Guideline of the Clinical and Laboratory Standards Institute (CLSI; 1-3). All the other drug susceptibility tests are performed under anaerobic conditions except that some selective isolates are tested under both aerobic and anaerobic conditions. Control compounds include metronidazole, rifampicin, clindamycin (under anaerobic conditions) and ciprofloxacin (under aerobic and anaerobic conditions).
The tested clinical isolates may be reference strains obtained from American Type Culture Collection, ATCC, Manassas, Va. After being received, the strains are respectively inoculated on appropriate agar plates and placed under optimized conditions for growth. The growing strains are cloned in the broth containing cryoprotectant to prepare bacterial suspensions, and the bacterial suspensions are subpackaged and then stored in freezing at −80° C. Before test, the frozen bacteria are inoculated into appropriate agar dishes and cultured for growth. Anaerobic bacteria grow for 48 hours at 35° C. in a Bactron II oxygen-free cabinet (Shel Lab, Cornelius, Oreg.) before test. […]
The Minimum Inhibitory Concentration (MIC) is determined using the agar dilution method.
The MIC values of all microorganisms except Haemophilus are determined using the agar dilution method in the CLSI (1-2). […] After culturing, the MIC is determined in accordance with the CLSI guideline (1-2).

[13] = test system: Actinomyces naeslundii JMI 534283; settings: JMI534283, Aerobic
[14] = test system: Alcaligenes faecalis JMI 940880; settings: JMI940880, Aerobic
[15] = test system: Serratia marcescens ATCC 43862; settings: Serratia marcescens, ATCC43862, Serratia marcescens ATCC 43862, read-out: MIC
[16] = test system: Proteus vulgaris ATCC 1331; settings: Proteus vulgaris, ATCC1331, Proteus vulgaris ATCC 1331, read-out: MIC
[17] = test system: Enterobacter aerogenes ATCC 13048; settings: Klebsiella aerogenes, ATCC13048, Enterobacter aerogenes ATCC 13048, read-out: MIC
[18] = test system: Staphylococcus saprophyticus JMI 2016_703; settings: Aerobic
[19] = test system: Streptococcus parasanguinis MMX 5671; settings: Streptococcus parasanguinis, MMX5671, Streptococcus parasanguinis MMX 5671, read-out: MIC
[20] = test system: Streptococcus salivarius ATCC 25975; settings: Streptococcus salivarius, ATCC25975, Streptococcus salivarius ATCC 25975, read-out: MIC
[21] = test system: Streptococcus pneumoniae ATCC 49619; settings: read-out: MIC
[22] = ATCC49619, Streptococcus pneumoniae ATCC 49619, Aerobic
[23] = ATCC49619, Streptococcus pneumoniae ATCC 49619, Anaerobic

O=C(O)c1cn(C2CC2)c2cc(N3CCNCC3)c(F)cc2c1=O [Ciprofloxacin, ciprofloxacin]
MIC [1]: 2 µg/mL (≈ 6.04 µM) | MIC [2]: 2 µg/mL (≈ 6.04 µM) | MIC [3]: 1 µg/mL (≈ 3.02 µM) | MIC [4]: 1 µg/mL (≈ 3.02 µM) | MIC [5]: 0.008 µg/mL (≈ 0.0241 µM) | MIC [6]: 0.12 µg/mL (≈ 0.362 µM) | MIC [7]: 1 µg/mL (≈ 3.02 µM) | MIC [8]: 1 µg/mL (≈ 3.02 µM) | MIC [9]: 0.015 µg/mL (≈ 0.0453 µM) | MIC [10]: 0.0015 µg/mL (≈ 0.00453 µM) | MIC [11]: 0.12 µg/mL (≈ 0.362 µM) | MIC [12]: 0.015 µg/mL (≈ 0.0453 µM) | MIC [13]: 2 µg/mL (≈ 6.04 µM) | MIC [14]: 1 µg/mL (≈ 3.02 µM) | MIC ([15]; Aerobic): 0.12 µg/mL (≈ 0.362 µM) | MIC ([15]; Anaerobic): 0.25 µg/mL (≈ 0.754 µM) | MIC ([16]; Aerobic): 0.03 µg/mL (≈ 0.0905 µM) | MIC ([16]; Anaerobic): 0.03 µg/mL (≈ 0.0905 µM) | MIC ([17]; Aerobic): 0.03 µg/mL (≈ 0.0905 µM) | MIC ([17]; Anaerobic): 2 µg/mL (≈ 6.04 µM) | MIC [18]: 1 µg/mL (≈ 3.02 µM) | MIC ([19]; Aerobic): 1 µg/mL (≈ 3.02 µM) | MIC ([19]; Anaerobic): 1 µg/mL (≈ 3.02 µM) | MIC ([20]; Aerobic): 1 µg/mL (≈ 3.02 µM) | MIC ([20]; Anaerobic): 2 µg/mL (≈ 6.04 µM) | MIC [21, 22]: 1 µg/mL (≈ 3.02 µM) | MIC [21, 23]: 2 µg/mL (≈ 6.04 µM)

CO[C@H]1/C=C/O[C@@]2(C)Oc3c(C)c(O)c4c(O)c(c(/C=N/N5CCC(N(C)C6([C@@H]7CCN(c8c(F)cn9c(=O)c(C(=O)O)cc(C%10CC%10)c9c8C)C7)CC6)CC5)c(O)c4c3C2=O)NC(=O)/C(C)=C\C=C\[C@H](C)[C@H](O)[C@@H](C)[C@@H](O)[C@@H](C)[C@H](OC(C)=O)[C@@H]1C [Compound I, (R)-3-[(4-{1-[1-(3-carboxy-1-cyclopropyl-7-fluoro-9-methyl-4-oxo-4H-quinolizine-8-yl)-pyrrolidin-3-yl-cyclopropyl]-methylamino}-piperidin-1-ylimino)-methylene]-rifamycin SV]
MIC [1]: 2 µg/mL (≈ 1.66 µM) | MIC [2]: 16 µg/mL (≈ 13.3 µM) | MIC [3]: 0.06 µg/mL (≈ 0.0498 µM) | MIC [4]: 0.12 µg/mL (≈ 0.0996 µM) | MIC [5]: 0.12 µg/mL (≈ 0.0996 µM) | MIC [6]: 0.12 µg/mL (≈ 0.0996 µM) | MIC [7]: 0.5 µg/mL (≈ 0.415 µM) | MIC [8]: 0.03 µg/mL (≈ 0.0249 µM) | MIC [9]: 4 µg/mL (≈ 3.32 µM) | MIC [10]: 8 µg/mL (≈ 6.64 µM) | MIC [11]: 2 µg/mL (≈ 1.66 µM) | MIC [12]: 0.06 µg/mL (≈ 0.0498 µM) | MIC [13]: 0.03 µg/mL (≈ 0.0249 µM) | MIC [14]: 32 µg/mL (≈ 26.5 µM) | MIC ([15]; Aerobic): 4 µg/mL (≈ 3.32 µM) | MIC ([15]; Anaerobic): > 64 µg/mL | MIC ([16]; Aerobic): 0.5 µg/mL (≈ 0.415 µM) | MIC ([16]; Anaerobic): > 64 µg/mL | MIC ([17]; Aerobic): 1 µg/mL (≈ 0.83 µM) | MIC ([17]; Anaerobic): > 64 µg/mL | MIC [18]: 0.5 µg/mL (≈ 0.415 µM) | MIC ([19]; Aerobic): 0.25 µg/mL (≈ 0.207 µM) | MIC ([19]; Anaerobic): 8 µg/mL (≈ 6.64 µM) | MIC ([20]; Aerobic): 0.5 µg/mL (≈ 0.415 µM) | MIC ([20]; Anaerobic): > 64 µg/mL | MIC [21, 22]: 0.06 µg/mL (≈ 0.0498 µM) | MIC [21, 23]: 0.06 µg/mL (≈ 0.0498 µM)
